Experimental data as given in patent publication US6759241B1, “Adjuvant comprising a lipopolysaccharide antagonist” (priority 1999, dated 2004).
Where no end group is shown, it is not given here.

Assays:
[1] = system: human peripheral blood mononuclear cells (PBMCs); assay: LPS antagonist activity: TNFα secretion by stimulated human PBMCs (capture ELISA); type: cell-based; details: 1 μg/ml + W3110 (10 ng/ml), 8 hr
Method: W3110 LPS (also cultured at 37° C.) from 1 ng/ml to 100 ng/ml alone and W3110 LPS (10 ng/ml) mixed with synthetic lipid IVA (1 μg/ml) were used as controls. For this, PBMCs were obtained from 50 ml of whole blood and resuspended in complete medium (CM; RPMI containing pyruvate, glutamine, PenStrep, and 10% endotoxin-free human AB serum (Life Technologies) at a density of 6×10^6 PBMCs/ml. CM containing W3110 LPS, MLK986 LPS or synthetic lipid IVA was placed into duplicate wells of a 96-well flat bottom culture plate (Costar) at double the target final concentration. An equal volume of CM containing the PBMCs then was added to these wells and the culture plates were incubated at 37° C. in 5% CO2 for 8 hr. The supernatants were then removed and stored at […] Quantitation of TNFα, IL-1β, and IL-6 in these culture supernatants was achieved by capture ELISA (R&D Systems).

BALB/c mice [2] = assay: Adjuvant activity with protein antigen gp120: anti-gp120 serum IgG by ELISA; type: in vivo
Method: Vaccine preparations containing an LPS antagonist and a protein antigen can be prepared in the following manner. Each vaccine preparation contained 5 μg of fully glycosylated endotoxia-free HIV-1MN gp120 (Virostat Cat. No. 8919, Lot AM735). Preparations comprised of gp120 and LPS antagonist were formulated essentially as outlined in Example 2 above except that each dose contained 5 μg of gp120 combined with a range of LPS antagonist doses (from 1 μg to 10 μg). The LPS antagonist was isolated from MLK986 cultured at 37° C. as described above.
Groups of 3 BALB/c mice were given a single dose of a given preparation of gp120 and LPS antagonist subcutaneously (primary vaccination). To determine the immunogenicity of the antigen in the absence of LPS antagonist, a group of BALB/c mice were vaccinated with 5 μg gp 120 formulated alone. For comparative purposes, an additional group of mice were vaccinated with 5 μg of gp120 formulated with Alum, as described (Coligan, et al., 1994, supra).
To measure the immunogenicity of each formulation, sera were collected from the mice in each group before and on day 14 after primary vaccination, as described in Example 2 above. On day 21 after the primary vaccination, mice were given a booster vaccination containing […] of gp120 formulated with matched doses of LPS antagonist, as was given in the primary vaccination. Ten and 17 days after the boost, venous blood was collected from the mice, and sera were obtained as outlined above. The level of anti-gp120 IgG in pooled serum samples was determined by ELISA as described in Example 2 above, except that gp120 was used in place of Hep-Tat in the first coating step. The results of the ELISA were obtained by reading the optical density of each well using a Molecular Dynamics ELISA plate reader and are shown in Table 3 below. The data are presented as dilution of the sera to achieve 50% saturation.

BALB/c mice [3] = assay: Adjuvant activity with peptide antigen Hep-Tat: Hep-Tat-specific serum IgG by ELISA; type: in vivo
Method: Vaccine preparations containing a peptide antigen and an LPS antagonist were prepared in the following manner. Each vaccine preparation contained […] of the vaccine peptide (herein designated “Hep-Tat”) that corresponds to the heparin-binding domain of the HIV-1 regulatory protein Tat and is comprised of the following sequence (GLGIS YGRKKRRQR; SEQ ID NO: 1). The peptide antigen was prepared synthetically as a Multiple Antigen Peptide (MAPS;Genosys). To formulate the preparations comprised of Hep-Tat and LPS antagonist (purified as outlined above), […] of Hep-Tat was combined with a range of LPS antagonist doses (from […]). The LPS antagonist was isolated from MLK986 cultured at 37° C. as described in. Example 1.
Groups of three BAL Blc mice were injected intraperitoneally with a single dose of a given preparation of Hep-Tat and LPS antagonist (i.e., primary vaccination). To determine the immunogenicity of the antigen in the absence of LPS antagonist, a group of BALB/c mice were vaccinated with 50 μg Hep-Tat formulated-alone. For comparative purposes, an additional group of mice was vaccinated with 50 μg Hep-Tat formulated with Alum, as described (Coligan, et al., 1994, supra).
To measure the immunogenicity of each formulation, venous blood was collected from the mice in each group before and on day 14 after primary vaccination, as described (Coligan, et al., 1994, supra). Serum was then obtained from each of these blood samples using standard techniques (Coligan, et al., 1994, supra). On day 21 after the primary vaccination, mice were given a booster vaccination containing the same dose of Hep-Tat and LPS antagonist or alum as was given in the primary vaccination. Seven days after the boost, venous blood was collected from the mice in each, and sera were obtained as outlined above. Each of the serum samples from individual groups were pooled and the level of Hep-Tat-specific IgG was ascertained by ELISA. In short, plastic 96 well ELISA plates (Immunol 2 Dynatech) were coated with Hep-Tat, by adding […] of Hep-Tat at 10 μg/ml suspended in PBS (Phosphate Buffer Saline) pH 7.4 in each well, and incubating overnight at 4° C. The plates were subsequently washed to remove unbound peptide and then 100 μl of blocking solution (comprised of 1% (w/v) Bovine Serum Albumin (BSA; Sigma) suspended in PBS) was added to each well. […] The result of the ELISA were obtained by reading the optical density of each well using a Molecular Dynamics ELISA plate reader. […]

[4] = Pre (before primary vaccination), pooled sera

CCCCCCCCCCC[C@@H](O)CC(=O)N[C@H]1[C@H](OC[C@H]2O[C@H](OP(=O)(O)O)[C@H](NC(=O)C[C@H](O)CCCCCCCCCCC)[C@@H](OC(=O)C[C@H](O)CCCCCCCCCCC)[C@@H]2O)O[C@H](CO)[C@@H](OP(=O)(O)O)[C@@H]1OC(=O)C[C@H](O)CCCCCCCCCCC [Lipid IVA]
TNFa [1]: <30 pg/mL

Gp120: fully glycosylated endotoxin-free HIV-1MN gp120 (Virostat Cat. No. 8919)
Gp120-specific serum antibodies (anti-gp120 IgG), dilution of the sera to achieve 50% saturation (BALB/c mice [2]; 5 μg gp120 alone, subcutaneous, Day 14): <10
immunogenicity of the antigen dose (BALB/c mice [2]; 5 μg of gp120 formulated with Alum, preliminary experiments): marginally immunogenic
Gp120-specific serum antibodies (anti-gp120 IgG), dilution of the sera to achieve 50% saturation (BALB/c mice [2]; [4]): −10
Gp120-specific serum antibodies (anti-gp120 IgG), dilution of the sera to achieve 50% saturation (BALB/c mice [2]; gp120 alone, subcutaneous, boosted, Day 21): <10

Hep-Tat: vaccine peptide, heparin-binding domain of HIV-1 Tat (GLGIS YGRKKRRQR; SEQ ID NO: 1), Multiple Antigen Peptide (GLGISYGRKKRRQR; also: multiple antigen peptide format)
Tat-specific antibodies (Hep-Tat-specific IgG), dilution of the sera to achieve the 50% saturation (BALB/c mice [3]; 50 μg Hep-Tat alone, intraperitoneal, boosted, Day 21): <10
Tat-specific antibodies (Hep-Tat-specific IgG), dilution of the sera to achieve the 50% saturation (BALB/c mice [3]; 50 μg Hep-Tat alone, intraperitoneal, Day 14): <10
immunogenicity of the antigen dose (BALB/c mice [3]; 50 μg of Hep-Tat formulated with Alum (Pierce), preliminary experiments): marginally immunogenic
Tat-specific antibodies (Hep-Tat-specific IgG), dilution of the sera to achieve the 50% saturation (BALB/c mice [3]; [4]): <10
